Here are results for 24 compounds from patent US20250114338A1, “TETRAHYDRO-PYRIDO[3,4-b]INDOLE ESTROGEN RECEPTOR MODULATORS AND USES THEREOF” (Genentech, Inc., priority 2014, published 2025).

What is called EC50 is the concentration that produces a half-maximal response.

The subject of the test is ER-alpha MCF7. Put plainly: ER-alpha MCF7 HCS EC50; stated as measured by in vitro cell proliferation assays of Examples 902 and 903. The format is cell-based. The conditions noted are these: Homo sapiens, MCF7, MCF7 cells; Table 2. In outline:
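MCF7 cells seeded 1000-2000 cells/well for 16 h, then treated with nine-point 1:2 DMSO dilution series in quadruplicate at 37 °C, 5% CO2 for 4 days. Viable cells quantified by CellTiter-Glo ATP luminescence; EC50 calculated. Controls: fulvestrant at final 100 nM, DMSO 0.2% v/v.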
As for `C[C@@H]1Cc2c([nH]c3c(F)cccc23)[C@@H](c2c(F)cc(OC3CN(CCCF)C3)cc2F)N1CC(C)(C)F` [Example 261, (1R,3R)-1-(2,6-difluoro-4-((1-(3-fluoropropyl)azetidin-3-yl)oxy)phenyl)-8-fluoro-2-(2-fluoro-2-methylpropyl)-3-methyl-2,3,4,9-tetrahydro-1H-pyrido[3,4-b]indole], the half-maximal effective concentration (EC50) worked out at 0.28 nM. Regarding `C[C@@H]1Cc2c([nH]c3cccc(F)c23)[C@@H](c2c(F)cc(NC3CN(CCCF)C3)cc2F)N1C[C@](C)(F)CO` [Example 398, (S)-3-((1R,3R)-1-(2,6-difluoro-4-((1-(3-fluoropropyl)azetidin-3-yl)amino)phenyl)-5-fluoro-3-methyl-3,4-dihydro-1H-pyrido[3,4-b]indol-2(9H)-yl)-2-fluoro-2-methylpropan-1-ol], the EC50 turned out to be 0.11 nM. As for `C[C@@H]1Cc2c([nH]c3ccc(F)cc23)[C@@H](c2c(F)cc(OC3CN(CCCF)C3)cc2F)N1C[C@](C)(F)CO` [Example 368, 3-(1-{2,6-Difluoro-4-[1-(3-fluoro-propyl)-azetidin-3-yloxy]-phenyl}-6-fluoro-3-methyl-1,3,4,9-tetrahydro-beta-carbolin-2-yl)-2-fluoro-2-methyl-propan-1-ol], the figure is 0.546 nM; as for `C[C@@H]1Cc2c([nH]c3ccccc23)[C@@H](c2c(F)cc(OC3CN([C@H]4C[C@H](O)C4)C3)cc2F)N1CC(C)(C)F` [Example 331, 3-[3-[3,5-difluoro-4-[(1R,3R)-2-(2-fluoro-2-methyl-propyl)-3-methyl-1,3,4,9-tetrahydropyrido[3,4-b]indol-1-yl]phenoxy]azetidin-1-yl]cyclobutanol], 0.236 nM; as for `CCS(=O)(=O)N1[C@H](c2ccc(OCCN3CC(CF)C3)cc2)c2[nH]c3ccccc3c2C[C@H]1C` [Example 324, (1R,3R)-2-ethylsulfonyl-1-[4-[2-[3-(fluoromethyl)azetidin-1-yl]ethoxy]phenyl]-3-methyl-1,3,4,9-tetrahydropyrido[3,4-b]indole], 0.198 nM. To `C[C@H]1Cc2c([nH]c3ccc(F)cc23)[C@H](c2c(F)cc(OC3CN(CCCF)C3)cc2F)N1CC(F)F` [Example 386, (1S,3S)-1-(2,6-difluoro-4-((1-(3-fluoropropyl)azetidin-3-yl)oxy)phenyl)-2-(2,2-difluoroethyl)-6-fluoro-3-methyl-2,3,4,9-tetrahydro-1H-pyrido[3,4-b]indole] belongs 23 nM; to `C[C@H](CF)CN1[C@H](c2c(F)cc(OCCN3CC(CF)C3)cc2F)c2[nH]c3ccccc3c2C[C@H]1C` [Example 270, (1R,3R)-1-(2,6-difluoro-4-(2-(3-(fluoromethyl)azetidin-1-yl)ethoxy)phenyl)-2-((S)-3-fluoro-2-methylpropyl)-3-methyl-2,3,4,9-tetrahydro-1H-pyrido[3,4-b]indole], 0.459 nM.

Turning to `C[C@@H]1Cc2c([nH]c3ccccc23)[C@@H](c2ccc(NCCN3CC(CF)C3)cc2F)N1CC(C)(F)CO` (stereo partly drawn) [Example 327, 2-fluoro-3-((1R,3R)-1-(2-fluoro-4-((2-(3-(fluoromethyl)azetidin-1-yl)ethyl)amino)phenyl)-3-methyl-1,3,4,9-tetrahydro-2H-pyrido[3,4-b]indol-2-yl)-2-methylpropan-1-ol], the EC50 was 0.347 nM. As for `C[C@@H]1Cc2c([nH]c3ccccc23)[C@@H](c2c(F)cc(OC3CN(CCCF)C3)cc2F)N1CC(C)(C)CF` [Example 272, (1R,3R)-1-[2,6-difluoro-4-[1-(3-fluoropropyl)azetidin-3-yl]oxy-phenyl]-2-(3-fluoro-2,2-dimethyl-propyl)-3-methyl-1,3,4,9-tetrahydropyrido[3,4-b]indole], the figure is 0.685 nM; as for `C[C@@H]1Cc2c([nH]c3ccccc23)[C@@H](c2c(F)cc(OCCN3CC(CF)C3)cc2F)N1C(=O)C1CSC1` [Example 214, [(1R,3R)-1-[2,6-difluoro-4-[2-[3-(fluoromethyl)azetidin-1-yl]ethoxy]phenyl]-3-methyl-1,3,4,9-tetrahydropyrido[3,4-b]indol-2-yl]-(thietan-3-yl)methanone], 4 nM. As to `Cc1cc(OC2CN(CCCF)C2)ccc1[C@@H]1c2[nH]c3ccccc3c2C[C@@H](C)N1CC(C)(C)F` [Example 256, (1R,3R)-2-(2-fluoro-2-methyl-propyl)-1-[4-[1-(3-fluoropropyl)azetidin-3-yl]oxy-2-methyl-phenyl]-3-methyl-1,3,4,9-tetrahydropyrido[3,4-b]indole], the EC50 was determined as 1.69 nM. As for `C[C@@H]1Cc2c([nH]c3ccc(F)cc23)[C@@H](c2c(F)cc(NC3CN(CCCF)C3)cc2F)N1CC(F)(F)F` [Example 372, N-(3,5-difluoro-4-((1R,3R)-6-fluoro-3-methyl-2-(2,2,2-trifluoroethyl)-2,3,4,9-tetrahydro-1H-pyrido[3,4-b]indol-1-yl)phenyl)-1-(3-fluoropropyl)azetidin-3-amine], the figure is 0.198 nM; as for `C[C@@H]1Cc2c([nH]c3ccccc23)[C@H](c2ccc(OCCN3CC(CF)C3)cc2)N1C(=O)C(C)(C)F` [Example 235, 2-fluoro-1-[(1S,3R)-1-[4-[2-[3-(fluoromethyl)azetidin-1-yl]ethoxy]phenyl]-3-methyl-1,3,4,9-tetrahydropyrido[3,4-b]indol-2-yl]-2-methyl-propan-1-one], 24 nM; as for `C[C@@H]1Cc2c([nH]c3ccccc23)[C@@H](c2c(F)cc(OC3CN(CC4(CF)CC4)C3)cc2F)N1CC(C)(C)F` [Example 427, (1R,3R)-1-(2,6-difluoro-4-((1-((1-(fluoromethyl)cyclopropyl)methyl)azetidin-3-yl)oxy)phenyl)-2-(2-fluoro-2-methylpropyl)-3-methyl-2,3,4,9-tetrahydro-1H-pyrido[3,4-b]indole], 0.278 nM. On to `C[C@@H]1Cc2c([nH]c3ccccc23)[C@@H](c2c(F)cc(OC3CN(CCCF)C3)cc2F)N1C[C@H](CO)C(F)(F)F` [Example 375, (R)-2-(((1R,3R)-1-(2,6-difluoro-4-((1-(3-fluoropropyl)azetidin-3-yl)oxy)phenyl)-3-methyl-1,3,4,9-tetrahydro-2H-pyrido[3,4-b]indol-2-yl)methyl)-3,3,3-trifluoropropan-1-ol], for which the EC50 came to 0.764 nM. To `C[C@@H]1Cc2c([nH]c3ccccc23)[C@@H](c2c(F)cc(OCCN3CC(CF)C3)cc2F)N1CC(C)(C)C` [Example 147, (1R,3R)-1-[2,6-difluoro-4-[2-[3-(fluoromethyl)azetidin-1-yl]ethoxy]phenyl]-2-(2,2-dimethylpropyl)-3-methyl-1,3,4,9-tetrahydropyrido[3,4-b]indole] belongs 0.698 nM; to `C[C@@H]1Cc2c([nH]c3ccccc23)[C@@H](c2c(F)cc(NC3CN(CCCF)C3)cc2F)N1CC(F)(F)F` [Example 304, N-(3,5-difluoro-4-((1R,3R)-3-methyl-2-(2,2,2-trifluoroethyl)-2,3,4,9-tetrahydro-1H-pyrido[3,4-b]indol-1-yl)phenyl)-1-(3-fluoropropyl)azetidin-3-amine], 0.224 nM; to `C[C@@H]1Cc2c([nH]c3ccccc23)[C@@H](c2c(F)cc(NC3CN(CCCF)C3)cc2F)N1C[C@@](F)(C#N)CO` [Example 418, (R)-3-((1R,3R)-1-(2,6-difluoro-4-((1-(3-fluoropropyl)azetidin-3-yl)amino)phenyl)-3-methyl-3,4-dihydro-1H-pyrido[3,4-b]indol-2(9H)-yl)-2-fluoro-2-(hydroxymethyl) propanenitrile], 0.033 nM. In the case of `C[C@@H]1Cc2c([nH]c3ccccc23)[C@@H](c2c(F)cc(OCCN3CC(CF)C3)cc2F)N1C(=O)C1CC1F` (stereo partly drawn) [Example 183, ((1R,3R)-1-(2,6-difluoro-4-(2-(3-(fluoromethyl)azetidin-1-yl)ethoxy)phenyl)-3-methyl-3,4-dihydro-1H-pyrido[3,4-b]indol-2(9H)-yl)(2-fluorocyclopropyl)methanone], the EC50 was 4 nM.

Take `C[C@@H]1Cc2c([nH]c3ccccc23)[C@@H](c2ccc(NCCN3CC(CF)C3)cc2)N1S(C)(=O)=O` [Example 325, N-[2-[3-(fluoromethyl)azetidin-1-yl]ethyl]-4-[(1R,3R)-3-methyl-2-methylsulfonyl-1,3,4,9-tetrahydropyrido[3,4-b]indol-1-yl]aniline]: the EC50 is 1 nM. Take `C[C@@H]1Cc2c([nH]c3ccc(F)cc23)[C@@H](c2c(F)cc(OCCN3CC(CF)C3)cc2F)N1CC(F)(F)CO` [Example 359, 3-((1R,3R)-1-(2,6-difluoro-4-(2-(3-(fluoromethyl)azetidin-1-yl)ethoxy)phenyl)-6-fluoro-3-methyl-1,3,4,9-tetrahydro-2H-pyrido[3,4-b]indol-2-yl)-2,2-difluoropropan-1-ol]: the EC50 amounted to 0.552 nM. To `C[C@H]1Cc2c([nH]c3ccc(F)cc23)[C@H](c2c(F)cc(OCCN3CC(CF)C3)cc2F)N1CC(C)(C)F` [Example 245, (1S,3S)-1-(2,6-difluoro-4-(2-(3-(fluoromethyl)azetidin-1-yl)ethoxy)phenyl)-6-fluoro-2-(2-fluoro-2-methylpropyl)-3-methyl-2,3,4,9-tetrahydro-1H-pyrido[3,4-b]indole] belongs 35 nM; to `C[C@@H]1Cc2c([nH]c3ccccc23)[C@@H](c2c(F)cc(OC[C@H](C)N3CC(C(F)F)C3)cc2F)N1CC(C)(C)F` [Example 204, (1R,3R)-1-[4-[(2S)-2-[3-(difluoromethyl)azetidin-1-yl]propoxy]-2,6-difluoro-phenyl]-2-(2-fluoro-2-methyl-propyl)-3-methyl-1,3,4,9-tetrahydropyrido[3,4-b]indole], 0.371 nM; to `C[C@H]1Cc2c([nH]c3cccc(F)c23)[C@H](c2c(F)cc(OC3CN(CCCF)C3)cc2F)N1CC(C)(C)F` [Example 253, (1S,3S)-1-(2,6-difluoro-4-((1-(3-fluoropropyl)azetidin-3-yl)oxy)phenyl)-5-fluoro-2-(2-fluoro-2-methylpropyl)-3-methyl-2,3,4,9-tetrahydro-1H-pyrido[3,4-b]indole], 35 nM.
